# From patent publication US7776862B2, “Pyridyl and phenyl substituted piperazine-piperidines with CXCR3 antagonist activity” (Schering Corporation, priority 2005, dated 2010)
# Biological target: T1, human CXCR3 (N-delta 4) (Homo sapiens, UniProt P49682)
# T1 construct: CD8 leader; Flag tag; expressed in transfected cells; membranes used
# T1 sequence (P49682 5-368 limits assumed): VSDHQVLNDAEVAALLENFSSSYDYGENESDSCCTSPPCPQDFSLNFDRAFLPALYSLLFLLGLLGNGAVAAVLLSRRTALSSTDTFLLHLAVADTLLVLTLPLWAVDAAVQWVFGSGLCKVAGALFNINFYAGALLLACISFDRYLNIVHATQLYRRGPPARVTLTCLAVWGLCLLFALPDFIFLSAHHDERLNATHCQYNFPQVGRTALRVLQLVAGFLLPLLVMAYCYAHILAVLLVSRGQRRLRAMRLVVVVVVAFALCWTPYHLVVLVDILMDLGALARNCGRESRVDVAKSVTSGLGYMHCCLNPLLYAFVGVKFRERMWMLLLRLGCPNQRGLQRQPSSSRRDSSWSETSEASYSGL
# Test: Human CXCR3 (N-delta 4) scintillation proximity assay (SPA), [125I] IP-10 binding
# Settings: IC50 rating; Ba/F3-hCXCR3 (N-delta 4) membranes, 25 pM [125I] IP-10
# Outline: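 Membranes from mouse Ba/F3 pro-B cells stably expressing Flag-tagged human CXCR3 (N-delta 4) were coupled to SPA beads. IP-10 was added together with titrated compounds to start the reaction, and bound radioligand was read by scintillation proximity.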
row,IC50,SMILES
1,0.025 to 0.1 µM,Cc1cc(NC(=O)c2cnc(N3CCN(C4CCN(Cc5ccc(Cl)cc5)CC4)[C@@H](C)C3)c(Cl)c2)no1 [compound 310]
2,0.025 to 0.1 µM,C[C@H]1CN(c2ncc(C(=O)NCc3ccc(F)c(F)c3)cc2Cl)CCN1C1CCN(CCOc2ccc(Cl)cc2)CC1 [compound 311]
3,0.025 to 0.1 µM,C[C@H]1CN(c2ncc(C(=O)Nc3cc[nH]n3)cc2Cl)CCN1C1CCN(Cc2ccc(Cl)cc2)CC1 [compound 312]
4,0.025 to 0.1 µM,N#Cc1ccc(CN2CCC(N3CCN(c4ncc(C(=O)NCCOc5ccccc5)cc4Br)CC3)CC2)cc1 [compound 314]
5,0.025 to 0.1 µM,CC[C@H]1CN(c2cc(N)c(C(N)=O)cc2Cl)CCN1C1CCN(Cc2ccc(Cl)cc2F)CC1 [compound 315]
6,0.025 to 0.1 µM,CC[C@H]1CN(c2ncc(C(=O)NC)c(N)c2Cl)CCN1C1CCN(Cc2ccc(Cl)cc2F)CC1 [compound 316]
7,0.025 to 0.1 µM,N#Cc1ccc(CN2CCC(N3CCN(c4ncc(C(=O)NCc5ccc(Cl)c(Cl)c5)cc4Cl)CC3)CC2)cc1 [compound 317]
8,0.025 to 0.1 µM,CC[C@H]1CN(c2ncc(C(=O)NC3CC3)cc2Cl)CCN1C1CCN(Cc2ccc(F)cc2C(F)(F)F)CC1 [compound 318]
9,0.025 to 0.1 µM,C[C@H]1CN(c2ncc(C(=O)NCc3ccc(Cl)c(Cl)c3)cc2Cl)CCN1C1CCN(C(=O)c2ccc(C#N)cc2)CC1 [compound 319]
10,0.025 to 0.1 µM,CNC(=O)c1cnc(N2CCN(C3CCN(Cc4ccc(C)cc4)CC3)[C@@H](C)C2)c(Cl)c1 [compound 320]
11,0.025 to 0.1 µM,N#Cc1ccc(CN2CCC(N3CCN(c4ncc(C(=O)NCc5ccc(F)cc5)cc4Cl)CC3)CC2)cc1 [compound 321]
12,0.025 to 0.1 µM,COc1ccc(CN2CCC(N3CCN(c4ncc(C(=O)NCc5ccc(C(F)(F)F)cc5)cc4Br)CC3)CC2)cc1 [compound 322]
13,0.025 to 0.1 µM,O=C(NCCOc1ccccc1)c1cnc(N2CCN(C3CCN(Cc4ccc(Cl)cc4)CC3)CC2)c(Cl)c1 [compound 323]
14,0.025 to 0.1 µM,N#Cc1ccc(CN2CCC(N3CCN(c4ncc(C(=O)NCc5ccc(C(F)(F)F)cc5)cc4Br)CC3)CC2)cc1 [compound 324]
15,> 0.1 µM,O=C(NCc1ccc(C(F)(F)F)cc1)c1cnc(N2CCN(C3CCN(Cc4ccc(Br)cc4)CC3)CC2)c(Br)c1 [compound 325]
16,> 0.1 µM,CCNC(=O)c1cnc(N2CCN(C3CCN(C(C)(C)c4ccc(Cl)cc4)CC3)[C@@H](C)C2)c(Cl)c1 [compound 326]
17,> 0.1 µM,C[C@H]1CN(c2ncc(C(=O)NCc3ccc(F)c(F)c3)cc2Cl)CCN1C1CCN(CCC(=O)c2ccc(Cl)cc2)CC1 [compound 327]
18,> 0.1 µM,CNC(=O)c1cnc(N2CCN(C3CCN([C@@H](C)c4ccc(Cl)cc4)CC3)[C@@H](C)C2)c(Cl)c1 [compound 328]

row,IC50,SMILES
1,> 0.1 µM,N#Cc1ccc(C(=O)N2CCC(N3CCN(c4ncc(C(=O)NCCOc5ccccc5)cc4Br)CC3)CC2)cc1 [compound 329]
2,> 0.1 µM,CCNC(=O)c1cnc(N2CCN(C3CCN([C@H](CC)c4ccc(Cl)cc4)CC3)[C@@H](C)C2)c(Cl)c1 [compound 330]
3,> 0.1 µM,COc1ccc(CN2CCC(N3CCN(c4ncc(C(=O)NCCOc5ccccc5)cc4Cl)CC3)CC2)cc1 [compound 331]
4,> 0.1 µM,CC[C@H]1CN(c2ncc(C(N)=O)cc2Cl)CCN1C1CCN(C(=O)c2ccc(Cl)cc2)CC1 [compound 332]
5,> 0.1 µM,CNC(=O)c1cnc(N2CCN(C3CCN(Cc4ccc(Cl)nc4)CC3)[C@@H](C)C2)c(Cl)c1 [compound 333]
6,> 0.1 µM,CNC(=O)c1cnc(N2CCN(C3CCN(Cc4cccc(C)c4)CC3)[C@@H](C)C2)c(Cl)c1 [compound 334]
7,> 0.1 µM,C[C@H]1CN(c2ncc(C(=O)NCC3CCCCC3)cc2Cl)CCN1C1CCN(C(=O)c2ccc(C#N)cc2)CC1 [compound 335]
8,> 0.1 µM,N#Cc1ccc(CN2CCC(N3CCN(c4ncc(C(=O)NCc5ccc(C(F)(F)F)cc5)cc4Cl)CC3)CC2)cc1 [compound 336]
9,> 0.1 µM,CNC(=O)c1cnc(N2CCN(C3CCN(C(=O)c4ccc(Cl)cc4)CC3)[C@@H](C)C2)c(Cl)c1 [compound 337]
10,> 0.1 µM,N#Cc1ccc(CN2CCC(N3CCN(c4ncc(C(=O)NCCOc5ccccc5)cc4Cl)CC3)CC2)cc1 [compound 338]
11,> 0.1 µM,CCNC(=O)c1cnc(N2CCN(C3CCN(C(CC)c4ccc(Cl)cc4)CC3)[C@@H](C)C2)c(Cl)c1 (stereo partly shown) [compound 339]
12,> 0.1 µM,CCOC(CNC(=O)c1cnc(N2CCN(C3CCN(Cc4ccc(Cl)cc4)CC3)[C@@H](C)C2)c(Cl)c1)OCC [compound 340]
13,> 0.1 µM,CNC(=O)c1cnc(N2CCN(C3CCN(Cc4c(F)cc(F)cc4F)CC3)[C@@H](C)C2)c(Cl)c1 [compound 341]
14,> 0.1 µM,CC[C@H]1CN(c2ncc(C(=O)NN)cc2Cl)CCN1C1CCN(C(=O)c2ccc(Br)cc2)CC1 [compound 342]
15,> 0.1 µM,CC[C@H]1CN(c2ncc(C(=O)N(C)OC)cc2Cl)CCN1C1CCN(Cc2ccc(Cl)cc2F)CC1 [compound 343]
16,> 0.1 µM,CCNC(=O)c1cnc(N2CCN(C3CCN([C@@H](CC)c4ccc(Cl)cc4)CC3)[C@@H](C)C2)c(Cl)c1 [compound 344]
17,> 0.1 µM,COc1ccc(CNC(=O)c2cnc(N3CCN(C4CCN(Cc5ccc(C#N)cc5)CC4)CC3)c(Cl)c2)cc1 [compound 345]
18,> 0.1 µM,O=C(NCc1ccc(F)c(F)c1)c1cnc(N2CCN(C3CCN(CCOc4ccc(F)cc4)CC3)CC2)c(Cl)c1 [compound 346]

# Further lines, the molecule ahead of its results:
row,SMILES,IC50
1,C[C@@H]1CN(c2ncc(C(=O)NCc3ccc(Cl)c(Cl)c3)cc2Cl)CCN1C1CCN(Cc2ccc(C#N)cc2)CC1 [compound 282],0.025 to 0.1 µM
2,O=C(NCCOc1ccccc1)c1cnc(N2CCN(C3CCN(Cc4ccc(Cl)cc4)CC3)CC2)c(Br)c1 [compound 283],0.025 to 0.1 µM
3,O=C(NCc1ccc(Cl)c(Cl)c1)c1cnc(N2CCN(C3CCN(Cc4ccc(Br)cc4)CC3)CC2)c(Br)c1 [compound 284],0.025 to 0.1 µM
4,N#Cc1ccc(C(=O)N2CCC(N3CCN(c4ncc(C(=O)NCc5ccc(Cl)c(Cl)c5)cc4Br)CC3)CC2)cc1 [compound 285],0.025 to 0.1 µM
5,O=C(NCc1ccc(Cl)c(Cl)c1)c1cnc(N2CCN(C3CCN(Cc4ccc(Cl)cc4)CC3)CC2)c(Cl)c1 [compound 286],0.025 to 0.1 µM
6,CC[C@H]1CN(c2ncc(C(=O)NC(C)C)cc2Cl)CCN1C1CCN(C(=O)c2ccc(C#N)cc2)CC1 [compound 287],0.025 to 0.1 µM
7,O=C(NCc1ccc(Cl)cc1)c1cnc(N2CCN(C3CCN(Cc4ccc(Cl)cc4)CC3)CC2)c(Cl)c1 [compound 288],0.025 to 0.1 µM
8,O=C(NCc1ccc(Cl)c(Cl)c1)c1cnc(N2CCN(C3CCN(Cc4ccc(Br)cc4)CC3)CC2)c(Cl)c1 [compound 289],0.025 to 0.1 µM
9,O=C(NCCOc1ccccc1)c1cnc(N2CCN(C3CCN(Cc4ccc(Br)cc4)CC3)CC2)c(Br)c1 [compound 290],0.025 to 0.1 µM
10,C[C@H]1CN(c2ncc(C(=O)NCc3ccc(F)c(F)c3)cc2Cl)CCN1C1CCN(C(=O)c2ccc(C#N)cc2)CC1 [compound 291],0.025 to 0.1 µM
11,CNC(=O)c1cnc(N2CCN(C3CCN(C(=N)c4ccc(Cl)cc4)CC3)[C@@H](C)C2)c(Cl)c1 [compound 292],0.025 to 0.1 µM
12,O=C(NCc1ccc(Br)cc1)c1cnc(N2CCN(C3CCN(Cc4ccc(Cl)c(F)c4)CC3)CC2)c(Cl)c1 [compound 293],0.025 to 0.1 µM
13,CCNC(=O)c1cnc(N2CCN(C3CCN([C@@H](C)c4ccc(Cl)cc4)CC3)[C@@H](C)C2)c(Cl)c1 [compound 294],0.025 to 0.1 µM
14,CC[C@H]1CN(c2ncc(C(=O)NC)cc2Cl)CCN1C1CCN(Cc2ccccc2F)CC1 [compound 295],0.025 to 0.1 µM
15,O=C(NCc1cccc(F)c1)c1cnc(N2CCN(C3CCN(Cc4ccc(Cl)c(F)c4)CC3)CC2)c(Cl)c1 [compound 296],0.025 to 0.1 µM
16,O=C(NCc1ccc(F)cc1)c1cnc(N2CCN(C3CCN(Cc4ccc(Cl)cc4)CC3)CC2)c(Cl)c1 [compound 297],0.025 to 0.1 µM
17,N#Cc1ccc(C(=O)N2CCC(N3CCN(c4ncc(C(=O)NCc5ccc(F)c(F)c5)cc4Br)CC3)CC2)cc1 [compound 298],0.025 to 0.1 µM
18,CNC(=O)c1cnc(N2CCN(C3CCN(Cc4ccc(F)cc4Cl)CC3)[C@@H](C)C2)c(Cl)c1 [compound 299],0.025 to 0.1 µM
19,C[C@@H]1CN(c2ncc(C(=O)NCC3CCCCC3)cc2Cl)CCN1C1CCN(Cc2ccc(C#N)cc2)CC1 [compound 300],0.025 to 0.1 µM
20,CNC(=O)c1cnc(N2CCN(C3CCN(Cc4ccc(C(F)(F)F)cc4)CC3)[C@@H](C)C2)c(Cl)c1 [compound 301],0.025 to 0.1 µM
21,CNC(=O)c1cnc(N2CCN(C3CCN(Cc4ccc(Cl)cc4)CC3C)CC2)c(Cl)c1 (stereo not shown) [compound 302],0.025 to 0.1 µM
22,CC[C@H]1CN(c2ncc(C(=O)NC)cc2Cl)CCN1C1CCN(C(=O)c2ccc(C#N)cc2)CC1 [compound 303],0.025 to 0.1 µM
23,COc1ccc(CN2CCC(N3CCN(c4ncc(C(=O)NCCOc5ccccc5)cc4Br)CC3)CC2)cc1 [compound 304],0.025 to 0.1 µM
24,O=C(NCc1ccc(C(F)(F)F)cc1)c1cnc(N2CCN(C3CCN(Cc4ccc(Cl)cc4)CC3)CC2)c(Br)c1 [compound 305],0.025 to 0.1 µM
25,CC[C@H]1CN(c2ncc(C(=O)NCCN)cc2Cl)CCN1C1CCN(Cc2ccc(Cl)cc2F)CC1 [compound 306],0.025 to 0.1 µM
26,C[C@H]1CN(c2ncc(C(=O)NCc3ccc(F)c(F)c3)cc2Cl)CCN1C1CCN(C(=O)c2ccc(Cl)cc2)CC1 [compound 307],0.025 to 0.1 µM
27,O=C(NCc1ccc(Br)cc1)c1cnc(N2CCN(C3CCN(Cc4ccc(Br)cc4)CC3)CC2)c(Cl)c1 [compound 308],0.025 to 0.1 µM
28,CCNC(=O)c1cnc(N2CCN(C3CCN(C(=O)c4ccc(Cl)cc4)CC3)C(CC(F)(F)F)C2)c(Cl)c1 (stereo not shown) [compound 309],0.025 to 0.1 µM
